Experimental findings from patent publication US12365655B2, “Compounds” (CTXT PTY LTD, priority 2018, dated 2025) are described below.

Molecules are shown by their SMILES. Some results are limits rather than exact numbers.

Usually IC50 stands for the concentration needed to halve the response being measured.

The test system of experiment [1] is acetylation of the histone H3K23 marker in U2OS cells. The experiment is described as follows: Histone H3 Lysine 23 Acetylation Biomarker Assay. The format is cell-based. The settings on record: Homo sapiens, 24 hours incubation, read-out: IC50, inhibition of histone H3K23 acetylation. Here is the method: Compounds were tested for their ability to inhibit acetylation of the histone H3K23 marker in the following assay:
The cell line U2OS was seeded at a density of 9,000 cells per well in 96 well optical quality tissue culture plates in RPMI medium and 10% foetal bovine serum, and allowed to adhere for 24 hours under standard culture conditions (37 degree Celsius, 5% CO2). At the end of this period the medium was aspirated. […] After incubation for 24 hours, the cells were fixed with 3.7% formaldehyde in PBS for 20 minutes at room temperature, washed (5×5 minutes) with phosphate buffer saline containing 0.1% Tween 20 and blocked with Odyssey blocking buffer (LI-COR, Lincoln, Nebr.) containing 0.1% TritonX100. Anti-H3K23ac specific antibody (Abcam ab177275) in Odyssey blocking buffer containing 0.1% Tween 20 was added and incubated for 16 hours at 4 degree Celsius. After washing (as above), a secondary antibody labelled with Alexa647 dye (LifeTechnologies) and Hoechst 33342 (1 μg/mL, SigmaAldrich) were added for 1 hour incubation. Plates were washed as previously and read on a PerkinElmer Phenix high content imaging platform. Using a Columbus image analysis pipeline, individual nuclei were located by Hoechst 33342 stain and the acetylation level was calculated from the Alexa647-related intensity in the same area.

The target of a further experiment is TIP60-KAT5 (Homo sapiens, UniProt Q92993). In words: Acetyltransferase biochemical assay (AlphaScreen), KAT5. (In general: Bead proximity is the source of the signal in Alpha formats.)
Chain of TIP60-KAT5 (Q92993 with tags, fused parts or gaps isoform Q92993-2): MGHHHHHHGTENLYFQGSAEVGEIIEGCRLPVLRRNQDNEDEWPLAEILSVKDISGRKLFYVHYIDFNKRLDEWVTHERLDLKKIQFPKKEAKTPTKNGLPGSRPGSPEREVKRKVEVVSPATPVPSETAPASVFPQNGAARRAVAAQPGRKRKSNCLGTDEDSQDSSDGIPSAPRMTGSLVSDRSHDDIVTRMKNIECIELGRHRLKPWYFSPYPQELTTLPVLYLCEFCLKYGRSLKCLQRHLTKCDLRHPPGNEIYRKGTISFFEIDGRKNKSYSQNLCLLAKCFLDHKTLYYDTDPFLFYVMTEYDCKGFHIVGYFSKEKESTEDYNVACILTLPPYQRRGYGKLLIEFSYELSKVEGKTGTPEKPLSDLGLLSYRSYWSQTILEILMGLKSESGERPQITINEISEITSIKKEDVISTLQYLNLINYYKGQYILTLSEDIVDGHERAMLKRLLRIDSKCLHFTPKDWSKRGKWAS
The target in another experiment is HBO-KAT7 (Homo sapiens, UniProt O95251). In words: Acetyltransferase biochemical assay (AlphaScreen), KAT7.
Chain of HBO-KAT7 (O95251 with tags, fused parts or gaps): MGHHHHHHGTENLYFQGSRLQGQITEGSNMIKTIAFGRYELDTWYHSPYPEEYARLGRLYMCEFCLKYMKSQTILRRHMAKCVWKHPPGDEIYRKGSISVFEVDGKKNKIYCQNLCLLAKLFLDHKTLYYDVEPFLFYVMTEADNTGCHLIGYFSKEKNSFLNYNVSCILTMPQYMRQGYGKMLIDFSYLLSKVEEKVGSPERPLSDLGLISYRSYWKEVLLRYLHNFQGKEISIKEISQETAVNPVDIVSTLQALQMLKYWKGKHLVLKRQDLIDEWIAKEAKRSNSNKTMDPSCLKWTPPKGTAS
Another experiment concerns the target MOZ-KAT6A (Homo sapiens, UniProt Q92794, A567V). The experiment is described as follows: Acetyltransferase biochemical assay (AlphaScreen), KAT6A.
Another experiment addresses T1, QKF-KAT6B (Homo sapiens, UniProt Q8WYB5).
T1 construct: purchased SignalChem K315-381BG
The experiment is described as follows: Acetyltransferase biochemical assay (AlphaScreen), KAT6B. The settings on record: 8 nM KAT6B, 1 μM AcCoA, 100 nM histone H3.1. An excerpt:
KAT6B was obtained from SignalChem, catalog ID: K315-381BG

Experiment [2] has as its system acetylation of the histone H3 Lysine 14 marker in U2OS cells. The experiment is described as follows: Histone H3 Lysine 14 Acetylation Biomarker Assay. It is filed as cell-based. As to conditions: Homo sapiens, serum free medium, 24 hours incubation, read-out: IC50, inhibition of histone H3 Lysine 14 acetylation. The method, then:
Compounds were tested for their ability to inhibit acetylation of the histone H3 Lysine 14 marker in the following assay:
The cell line U2OS was seeded at a density of 3,000 cells per well in 384-well optical quality tissue culture plates in RPMI medium supplemented with 10% foetal bovine serum and 10 mM Hepes. The cells were allowed to adhere for 24 hours under standard culture conditions (37 degree Celsius, 5% CO2). At the end of this period the cells were washed with serum free medium. […] After incubation for 24 hours, the cells were fixed with 4% formaldehyde in PBS for 15 minutes at room temperature, washed with phosphate buffer saline and blocked with blocking buffer containing 0.2% TritonX100 and 2% BSA. Anti-H3K14ac specific antibody (Cell Signalling Technologies) in blocking buffer was added and incubated overnight at 4 degree Celsius. After washing, a secondary antibody labelled with AlexaFluor 488 dye (ThermoFisher) and Hoechst 33342 (1 μg/mL, Life Technologies) were added for 2 hours incubation at room temperature. Plates were washed and read on a PerkinElmer Opera HCS high content imaging platform. Using a Columbus image analysis pipeline, individual nuclei were located by Hoechst 33342 stain and the acetylation level was calculated from the AlexaFluor 488-related intensity in the same area.

Experiment [3] relates to histone H2A.Z Lysine 7 acetylation marker in U2OS cells. In words: H2A.Z Lysine 7 Acetylation Biomarker Assay. The format is cell-based. The settings on record: Homo sapiens, serum free medium, 24 hours incubation, read-out: IC50, inhibition of histone H2A.Z Lysine 7 acetylation. The method, then:
Compounds were tested for their ability to inhibit the histone H2A.Z Lysine 7 acetylation marker in the following assay:
The cell line U2OS was seeded at a density of 3,000 cells per well in 384-well optical quality tissue culture plates in RPMI medium supplemented with 10% foetal bovine serum and 10 mM Hepes. The cells were allowed to adhere for 24 hours under standard culture conditions (37 degree Celsius, 5% CO2). At the end of this period the cells were washed with serum free medium. […] 2018, at 30 μM concentration. After incubation for 24 hours, the cells were fixed with 4% formaldehyde in PBS for 15 minutes at room temperature, washed with phosphate buffer saline and blocked with blocking buffer containing 0.2% TritonX100 and 2% BSA. Anti-H2A.ZK7ac specific antibody (Abcam) in blocking buffer was added and incubated overnight at 4 degree Celsius. After washing, a secondary antibody labelled with AlexaFluor 488 dye (ThermoFisher) and Hoechst 33342 (1 μg/mL, Life Technologies) were added for 2 hours incubation at room temperature. Plates were washed and read on a PerkinElmer Opera HCS high content imaging platform. Using a Columbus image analysis pipeline, individual nuclei were located by Hoechst 33342 stain and the acetylation level was calculated from the AlexaFluor 488-related intensity in the same area.

Another experiment deals with T2, MOF-KAT8 (Homo sapiens, UniProt Q9H7Z6).
T2 sequence (Q9H7Z6 with tags, fused parts or gaps): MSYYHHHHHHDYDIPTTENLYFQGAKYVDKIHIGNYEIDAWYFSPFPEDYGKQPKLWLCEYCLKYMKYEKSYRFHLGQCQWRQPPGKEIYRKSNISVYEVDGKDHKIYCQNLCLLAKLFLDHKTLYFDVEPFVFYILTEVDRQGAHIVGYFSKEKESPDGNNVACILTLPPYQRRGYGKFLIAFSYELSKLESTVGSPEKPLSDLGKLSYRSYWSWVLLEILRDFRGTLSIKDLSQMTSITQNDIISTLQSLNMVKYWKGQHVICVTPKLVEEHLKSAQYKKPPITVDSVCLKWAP
The experiment is described as follows: biochemical.

Chain of MOZ-KAT6A (Q92794 with tags, fused parts or gaps A567V): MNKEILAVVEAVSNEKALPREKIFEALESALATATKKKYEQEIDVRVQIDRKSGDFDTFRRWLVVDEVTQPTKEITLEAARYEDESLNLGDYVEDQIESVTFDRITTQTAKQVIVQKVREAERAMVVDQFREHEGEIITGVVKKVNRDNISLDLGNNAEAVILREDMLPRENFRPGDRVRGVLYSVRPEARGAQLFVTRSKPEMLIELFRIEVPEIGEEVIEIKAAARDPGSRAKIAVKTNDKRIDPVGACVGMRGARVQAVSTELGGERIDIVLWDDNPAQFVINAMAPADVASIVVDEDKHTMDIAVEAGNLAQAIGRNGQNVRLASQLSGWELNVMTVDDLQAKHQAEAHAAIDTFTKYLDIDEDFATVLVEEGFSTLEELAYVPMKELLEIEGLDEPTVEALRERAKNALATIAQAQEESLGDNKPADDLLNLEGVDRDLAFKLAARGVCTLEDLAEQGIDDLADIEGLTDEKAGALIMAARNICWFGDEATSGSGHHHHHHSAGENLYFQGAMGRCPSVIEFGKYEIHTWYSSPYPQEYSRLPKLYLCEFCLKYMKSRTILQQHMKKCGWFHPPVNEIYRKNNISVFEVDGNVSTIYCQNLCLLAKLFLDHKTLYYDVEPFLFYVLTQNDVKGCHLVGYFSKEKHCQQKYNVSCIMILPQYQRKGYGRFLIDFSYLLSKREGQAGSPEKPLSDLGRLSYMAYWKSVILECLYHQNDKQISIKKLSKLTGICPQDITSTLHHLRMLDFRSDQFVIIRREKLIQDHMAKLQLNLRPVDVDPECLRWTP
T1 sequence (Q8WYB5 whole entry): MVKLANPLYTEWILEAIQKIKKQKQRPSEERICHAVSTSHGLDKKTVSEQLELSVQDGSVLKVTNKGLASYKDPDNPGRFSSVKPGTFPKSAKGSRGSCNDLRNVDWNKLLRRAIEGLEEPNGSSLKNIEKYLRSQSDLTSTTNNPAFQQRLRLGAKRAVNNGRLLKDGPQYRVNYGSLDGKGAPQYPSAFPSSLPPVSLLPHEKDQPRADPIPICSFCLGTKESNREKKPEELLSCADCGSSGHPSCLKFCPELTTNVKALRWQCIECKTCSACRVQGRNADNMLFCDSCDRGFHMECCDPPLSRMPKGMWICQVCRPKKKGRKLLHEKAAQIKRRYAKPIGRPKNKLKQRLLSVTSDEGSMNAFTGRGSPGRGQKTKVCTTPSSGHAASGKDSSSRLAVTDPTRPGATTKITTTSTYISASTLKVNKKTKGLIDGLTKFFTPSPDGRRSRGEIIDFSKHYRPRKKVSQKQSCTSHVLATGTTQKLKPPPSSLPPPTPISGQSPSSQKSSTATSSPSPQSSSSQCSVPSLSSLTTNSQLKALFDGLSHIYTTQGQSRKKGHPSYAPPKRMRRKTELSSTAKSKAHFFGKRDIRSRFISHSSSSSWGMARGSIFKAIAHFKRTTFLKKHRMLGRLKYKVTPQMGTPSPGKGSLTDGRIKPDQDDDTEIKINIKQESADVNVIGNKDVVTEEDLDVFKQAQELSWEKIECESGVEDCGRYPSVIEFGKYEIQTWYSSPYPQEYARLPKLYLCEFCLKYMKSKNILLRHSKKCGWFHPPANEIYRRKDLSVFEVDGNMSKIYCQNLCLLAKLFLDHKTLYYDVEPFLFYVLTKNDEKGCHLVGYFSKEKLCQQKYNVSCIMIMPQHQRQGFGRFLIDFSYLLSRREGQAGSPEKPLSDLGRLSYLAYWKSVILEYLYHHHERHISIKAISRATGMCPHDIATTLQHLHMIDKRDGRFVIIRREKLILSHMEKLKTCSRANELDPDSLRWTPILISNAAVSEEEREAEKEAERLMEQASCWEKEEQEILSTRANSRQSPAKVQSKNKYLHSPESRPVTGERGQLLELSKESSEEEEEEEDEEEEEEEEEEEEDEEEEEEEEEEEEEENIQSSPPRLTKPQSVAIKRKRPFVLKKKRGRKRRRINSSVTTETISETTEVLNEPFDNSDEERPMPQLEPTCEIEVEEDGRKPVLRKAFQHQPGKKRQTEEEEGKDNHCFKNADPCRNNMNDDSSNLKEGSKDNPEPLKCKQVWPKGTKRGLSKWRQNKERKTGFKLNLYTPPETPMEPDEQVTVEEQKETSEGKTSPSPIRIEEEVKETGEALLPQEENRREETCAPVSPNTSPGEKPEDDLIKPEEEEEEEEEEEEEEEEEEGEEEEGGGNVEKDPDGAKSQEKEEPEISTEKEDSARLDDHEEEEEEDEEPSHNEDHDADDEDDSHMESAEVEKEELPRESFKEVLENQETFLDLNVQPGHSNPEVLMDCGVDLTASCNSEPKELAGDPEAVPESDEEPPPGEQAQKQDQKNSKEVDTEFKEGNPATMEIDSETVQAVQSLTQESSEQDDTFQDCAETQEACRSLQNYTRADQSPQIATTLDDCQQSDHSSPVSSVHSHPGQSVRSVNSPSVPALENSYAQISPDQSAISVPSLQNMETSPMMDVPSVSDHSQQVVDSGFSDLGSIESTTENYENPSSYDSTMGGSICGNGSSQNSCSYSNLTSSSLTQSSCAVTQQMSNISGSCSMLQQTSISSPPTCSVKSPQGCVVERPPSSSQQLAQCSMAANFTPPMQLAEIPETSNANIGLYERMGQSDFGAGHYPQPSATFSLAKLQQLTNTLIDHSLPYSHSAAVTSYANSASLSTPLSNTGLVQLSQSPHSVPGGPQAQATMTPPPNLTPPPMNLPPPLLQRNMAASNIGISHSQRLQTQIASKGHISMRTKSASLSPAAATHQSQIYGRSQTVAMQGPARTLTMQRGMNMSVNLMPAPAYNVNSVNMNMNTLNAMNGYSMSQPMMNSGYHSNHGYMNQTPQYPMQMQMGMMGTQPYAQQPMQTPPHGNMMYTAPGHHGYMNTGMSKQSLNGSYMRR

As for `COc1cccc(OC)c1S(=O)(=O)Nc1noc2cccc(OC)c12` [Example 86, 2,6-dimethoxy-N-(4-methoxybenzo[d]isoxazol-3-yl)benzene sulfonamide], the 50% inhibitory concentration (IC50) in experiment [1] is 1.58 µM; on TIP60-KAT5, 97.6 µM; against HBO-KAT7, 1.98 µM; against MOZ-KAT6A, 5.89 µM.

Consider `COCc1cc(OC)c2c(NS(=O)(=O)c3c(OC)cc(-c4ccccc4)cc3OC)noc2c1` [Example 91, 3,5-Dimethoxy-N-(4-methoxy-6-(methoxymethyl)benzo [d]isoxazol-3-yl)-[1,1-biphenyl]-4-sulfonamide], for which the IC50 on QKF-KAT6B is 0.037 µM; in experiment [1], 0.182 µM; in experiment [2], 0.874 µM; in experiment [3], 8.02 µM; on TIP60-KAT5, 2.18 µM; on HBO-KAT7 it was 0.079 µM. For the same molecule, the IC50 at MOZ-KAT6A was 0.009 µM.

Take `COc1cccc(OC)c1S(=O)(=O)Nc1noc2cc(-c3cccc(O)c3)cc(OC)c12` [Example 92]: the IC50 against QKF-KAT6B was 0.053 µM; in experiment [1] it was 0.013 µM; in experiment [2], 0.703 µM; in experiment [3] it was 4.62 µM; against TIP60-KAT5 it was 1.39 µM; on HBO-KAT7, 0.06 µM. This molecule also came in with an IC50 at MOZ-KAT6A of 0.006 µM.

For the molecule `COc1ccc(-c2ccccc2)c(OC)c1S(=O)(=O)Nc1noc2cccc(OC)c12` [Example 96, 2,4-Dimethoxy-N-(4-methoxybenzo[d]isoxazol-3-yl)-[1,1-biphenyl]-3-sulfonamide], the IC50 on QKF-KAT6B is 3.39 µM; in experiment [1], > 10 µM; against MOF-KAT8 it was 53.8 µM; at TIP60-KAT5, 28.6 µM; at HBO-KAT7, 4.27 µM; against MOZ-KAT6A, 1.2 µM.

Consider `COc1cccc(OC)c1S(=O)(=O)Nc1noc2cc(-c3ncco3)c(C)cc12` [Example 102, 2,6-Dimethoxy-N-(5-methyl-6-(oxazol-2-yl)benzo[d]isoxazol-3-yl)benzenesulfonamide], for which the IC50 at QKF-KAT6B was 0.282 µM; in experiment [2], 3.69 µM; in experiment [3], > 40 µM; on MOF-KAT8, 11.5 µM; against TIP60-KAT5, 9.33 µM; on HBO-KAT7, 0.568 µM. The IC50 on MOZ-KAT6A is 0.143 µM.

For `CCc1ccc(OC)c(S(=O)(=O)Nc2noc3cccc(OC)c23)c1` [Example 116, 5-Ethyl-2-methoxy-N-(4-methoxybenzo[d]isoxazol-3-yl)benzenesulfonamide], the IC50 at QKF-KAT6B stood at 1.62 µM; in experiment [1], 3.46 µM; against TIP60-KAT5, 10.5 µM; at HBO-KAT7 it was 1.44 µM; on MOZ-KAT6A, 0.56 µM.

Regarding `COc1cccc(OC)c1S(=O)(=O)Nc1noc2c(-c3cnn(C)c3)ccc(OC)c12` [Example 143, 2,6-Dimethoxy-N-(4-methoxy-7-(1-methyl-1H-pyrazol-4-yl)benzo[d]isoxazol-3-yl)benzenesulfonamide], the IC50 on QKF-KAT6B was 50.7 µM; against TIP60-KAT5, > 125 µM; against HBO-KAT7 it was 7.88 µM; on MOZ-KAT6A, 32.4 µM.

As for `COCc1cc2onc(NS(=O)(=O)c3c(OC)cccc3OC)c2c(OC)c1Cl` [Example 145], the IC50 in experiment [1] is 0.098 µM; in experiment [2] it was 3.38 µM; in experiment [3] it was > 40 µM; against TIP60-KAT5, 21 µM; on HBO-KAT7 it was 0.259 µM; at MOZ-KAT6A it was 0.127 µM.

As to `COc1ccccc1S(=O)(=O)Nc1noc2cccc(Cl)c12` [Example 155], the half-maximal inhibitory concentration (IC50) in experiment [1] was > 10 µM; in experiment [2], 26.1 µM; in experiment [3], > 40 µM; against TIP60-KAT5 it was 0.672 µM; against HBO-KAT7, 0.248 µM; against MOZ-KAT6A, 2.12 µM.

For `COCc1cc(OC)c2c(NS(=O)(=O)c3c(OC)ccc(Cl)c3OC)noc2c1` [Example 175, 3-Chloro-2,6-dimethoxy-N-(4-methoxy-6-(methoxymethyl)benzo[d]isoxazol-3-yl)benzenesulfonamide], the IC50 on QKF-KAT6B stood at 0.821 µM; on TIP60-KAT5 it was 43.2 µM; at HBO-KAT7 it was 5.95 µM; on MOZ-KAT6A, 0.441 µM.

As for `CCc1ccc(OC)c(S(=O)(=O)Nc2noc3c(-c4cnn(C)c4)cccc23)c1` [Example 191, 5-Ethyl-2-methoxy-N-(7-(1-methyl-1H-pyrazol-4-yl)benzo[d]isoxazol-3-yl)benzenesulfonamide], the IC50 in experiment [1] was > 10 µM; in experiment [2], 17.8 µM; in experiment [3] it was > 40 µM; against TIP60-KAT5 it was 68.7 µM; on HBO-KAT7, 1.58 µM; on MOZ-KAT6A, 12.6 µM.

Consider `CCc1ccc(OC)c(S(=O)(=O)Nc2noc3ccc(C4CC4)c(Cl)c23)c1` [Example 207], for which the IC50 came to 1.45 µM against QKF-KAT6B, 4.61 µM against TIP60-KAT5, 0.257 µM against HBO-KAT7 and 0.104 µM against MOZ-KAT6A.

As for `CCc1ccc(OC)c(S(=O)(=O)Nc2noc3ccc(C4CC4)cc23)c1` [Example 236], the IC50 is > 40 µM in experiment [2]; > 40 µM in experiment [3]; 3.68 µM against MOF-KAT8; 10.1 µM on TIP60-KAT5; 1.07 µM on HBO-KAT7; 0.318 µM at MOZ-KAT6A.

For `COc1cccc(OC)c1S(=O)(=O)Nc1noc2cc(OC(F)F)cc(OC)c12` [Example 242], the IC50 came out at 0.672 µM in experiment [1], 27.3 µM against TIP60-KAT5, 1.78 µM against HBO-KAT7 and 3.23 µM on MOZ-KAT6A.

`COc1cncc(-c2cc(OC)c3c(NS(=O)(=O)c4c(OC)cccc4OC)noc3c2)c1` [Example 250, 2,6-Dimethoxy-N-(4-methoxy-6-(5-methoxypyridin-3-yl)benzo[d]isoxazol-3-yl)benzenesulfonamide]: the IC50 in experiment [1] was 3.71 µM; in experiment [2] it was 3.48 µM; in experiment [3], 13.2 µM; on TIP60-KAT5, 12.2 µM; on HBO-KAT7, 0.05 µM; on MOZ-KAT6A it was 0.423 µM.

In the case of `COc1cccc(OC)c1S(=O)(=O)Nc1noc2c(-c3ccccc3)cc(C)cc12` [Example 252, 2,6-Dimethoxy-N-(5-methyl-7-phenylbenzo[d]isoxazol-3-yl)benzenesulfonamide], the half-inhibitory concentration (IC50) in experiment [2] is 24.7 µM; in experiment [3] it was > 40 µM; at TIP60-KAT5, 102 µM; on HBO-KAT7, 1.3 µM; at MOZ-KAT6A it was 4.16 µM.
